Laboratory results from patent US6509050B1, “Use of antimicrobial polyphosphates in food processing” (Astaris LLC, priority 1999, dated 2003).
Several values for one entry are separate records, joined by “and”; a condition that tells them apart may be missing. Equal values may be shown once.

Assays:
Format in all cases: cell-based
[1] = tested on: psychrotrophic organisms; assay: Growth of psychrotrophic microorganisms in sectioned and formed ham (Example 7); details: after 8 weeks storage at 1.11° C., no phosphate: 7.79
Description: (§1) Five 16 Kg batches of restructured ham were prepared. Fresh whole pork hams were skinned, boned, sectioned into muscles, and each muscle trimmed to remove all trimmable connective tissue and subcutaneous and intramuscular fat. […] The pumped muscles were macerated manually to facilitate brine absorption; tumbled; and stuffed into fibrous casings in 908.0 g chubs. The hams were weighed and then cooked to 71.1° C. internal temperature. Cooked hams were chilled for 24 hr at 0° C., vacuum packaged, and stored at 1.11° C. for 8 weeks. Sample homogenate was prepared by blending 11 g of ham with 99 mL of sterile 0.1% peptone diluent and agitating for 1 min in a stomacher. Serial dilutions were prepared by transferring 1.0 mL aliquots of the sample diluent to 9 mL of sterile 0.1% peptone. […] Duplicate samples were analyzed for each treatment.

[2] = tested on: aerobic plate count; assay: Aerobic plate count in sectioned and formed ham (Example 7); details: after 8 weeks storage at 1.11° C., no phosphate: 6.03
Description: as §1

[3] = tested on: lactic acid organisms; assay: Growth of lactic acid organisms in sectioned and formed ham (Example 7); details: after 8 weeks storage at 1.11° C., no phosphate: 7.42
Description: as §1

[4] = tested on: psychrotrophic organisms; assay: Growth of psychrotrophic microorganisms in sectioned and formed ham (Example 6); details: 0.4% by weight phosphate in cooked ham; after 8 weeks storage at 0° C.; no phosphate: 3.97; listed as Sodium tripolyphosphate (pH about 9.8)
Description: Seven batches 40-pound (about 18.2 Kg) of cooked sectioned and formed boneless ham were manufactured to meet the following specifications: moisture, 71.2-73.7%; protein, 18.1-19.8%; fat, 3.66-6.31%; salt, 2.0%; and phosphate, 0.4%. The hams were manufactured to conform to the standards of identity for a cooked ham with a minimum of 18.5% protein fat free (PFF). The phosphate salts (0.4% by weight) indicated in Table 6 were added to six of the hams. […] After injection, the hams were vacuum-tumbled for 45 min, stuffed into 6.5-in (about 16.5 cm) diameter fibrous casings, and then cooked to an internal temperature of 71.1° C. Cooked hams were chilled for 8 hr at 0° C., vacuum packaged, and stored at 0° C. for 8 weeks. Sample homogenate was prepared by blending 11 g of ham with 99 mL of sterile 0.1% peptone diluent and agitating for 1 min in a stomacher. Serial dilutions were prepared by transferring 1.0 mL aliquots of the sample diluent to 9 mL of sterile 0.1% peptone. The appropriate dilutions were plated on plate count agar. The plates were incubated at 7° C. for 10 days.

| Compound | log (colony forming units)/g ([1]; 1.0% phosphate in ham) | log (colony forming units)/g ([2]; 1.0% phosphate in ham) | log (colony forming units)/g ([3]; 1.0% phosphate in ham) | log (colony forming units)/g [4] | log (colony forming units)/g ([1]; 0.4% phosphate in ham) | log (colony forming units)/g ([2]; 0.4% phosphate in ham) | log (colony forming units)/g ([3]; 0.4% phosphate in ham) |
| --- | --- | --- | --- | --- | --- | --- | --- |
| O=P([O-])(O)OP(=O)([O-])O.[Na+].[Na+] [Sodium acid pyrophosphate] | 5.28 log (colony forming units)/g | 4.49 log (colony forming units)/g | 5.38 log (colony forming units)/g |  |  |  |  |
| O=P1([O-])OP(=O)([O-])OP(=O)([O-])OP(=O)([O-])OP(=O)([O-])OP(=O)([O-])O1.[Na+].[Na+].[Na+].[Na+].[Na+].[Na+] [Sodium hexametaphosphate] | 4.62 log (colony forming units)/g | 4.55 log (colony forming units)/g | 6.24 log (colony forming units)/g |  |  |  |  |
| O=P(O)(O)OP(=O)(O)OP(=O)(O)O [Sodium tripolyphosphate] | 5.91 log (colony forming units)/g | 5.67 log (colony forming units)/g | 6.70 log (colony forming units)/g | 1.58 log (colony forming units)/g and 1.84 log (colony forming units)/g | 7.8 log (colony forming units)/g | 6.69 log (colony forming units)/g | 6.62 log (colony forming units)/g |
